Our source for the IC50 values is ChEMBL document CHEMBL1149414, “Vitamin D receptor: ligand recognition and allosteric network” (J Med Chem, 2006).

The target of assay [1] is T1, Vitamin D3 receptor (Homo sapiens, UniProt P11473).
T1 sequence (P11473 whole entry): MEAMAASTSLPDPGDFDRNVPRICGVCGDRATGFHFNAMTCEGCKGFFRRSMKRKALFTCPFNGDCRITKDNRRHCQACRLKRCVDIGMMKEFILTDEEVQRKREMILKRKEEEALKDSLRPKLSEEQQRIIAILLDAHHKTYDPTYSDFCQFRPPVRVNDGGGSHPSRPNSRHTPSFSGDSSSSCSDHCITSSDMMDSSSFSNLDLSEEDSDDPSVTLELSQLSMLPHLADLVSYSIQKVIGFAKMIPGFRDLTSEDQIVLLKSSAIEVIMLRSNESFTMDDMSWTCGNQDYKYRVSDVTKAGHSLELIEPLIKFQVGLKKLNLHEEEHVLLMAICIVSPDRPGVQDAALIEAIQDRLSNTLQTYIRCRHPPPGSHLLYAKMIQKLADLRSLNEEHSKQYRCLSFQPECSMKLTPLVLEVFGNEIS
Kind of assay: Inhibition of transactivation of human VDR in COS7 cells. Type of assay: functional, cell-based, COS-7.

The target of assay [2] is T1, Vitamin D3 receptor. Nature of the assay: Antagonistic activity against human VDR in presence of 1,25(OH)2D3. Type of assay: functional.

Structures are written as SMILES.

In assay [1], `C=C1C[C@H](C[C@@H](C)[C@H]2CC[C@H]3/C(=C/C=C4C[C@@H](O)C(=C)[C@H](O)C4)CCC[C@]23C)OC1=O` showed an IC50 of 0.3 µM.
On to `C[C@H](/C=C/C[C@H](O)C12CC3CC(CC(C3)C1)C2)[C@H]1CC[C@H]2/C(=C/C=C3C[C@@H](O)C[C@H](O)C3)CCC[C@]12C`, for which the IC50 stood at 0.05 µM in assay [2] and 0.4 µM in assay [1].
